BindingDB's records for patent US12377080 (Dana-Farber Cancer Institute, 2025)

Assays:
[1] = target: Epidermal growth factor receptor [L858R] (Homo sapiens, UniProt P00533, L858R); assay: HTRF-Based EGFR Biochemical Assays
Method: (§1) EGFR biochemical activity measurements were carried out using the homogeneous time-resolved fluorescence (HTRF) assay (Cisbio). Inhibitors and DMSO normalizations were first dispensed to empty black low-volume 384-well plates (Corning) with D300 digital liquid dispenser (HP). All reactions were carried out at room temperature and solutions were added to plates with a Multidrop Combi Reagent Dispenser (ThermoFisher). The reaction mixture (10 μL final volume) contained 1 μM tyrosine kinase peptide-biotin substrate and mutant EGFR in a reaction buffer (50 mM HEPES pH 7,0, 5 mM MgCl2,1 mM MnCl2, 0.01% BSA, 2 mM TCEP, 0.1 mM NaVO4). Enzyme concentrations were adjusted to accommodate varying kinase activities (L858R 0.1 nM, L858R!T790M 0,02 nM). Enzyme reaction solution (2× concentrations, 5 μL) was added to 384-well plates containing compounds and incubated for 30 mins. Enzyme reactions were initiated with the addition of […] of ATP to a final concentration of 100 μM and reacted for 20 mins. Reactions were quenched with the addition of 10 μL of phospho-tyrosine antibody-Europium(III) cryptate (1-to-180 volume ratio) and Streptavidin-XL665 (46.7 nM) in EDTA-containing detection buffer, then incubated at room temperature for 1 hour, and read with a PHERAstar plate reader (excitation =337 nm, emission =620 nm and 665 nm).

[2] = target: Epidermal growth factor receptor [T790M,L858R] (Homo sapiens, UniProt P00533, L858R/T790M); assay: HTRF-Based EGFR Biochemical Assays
Chain of Epidermal growth factor receptor [T790M,L858R] (P00533 25-1210 T790M/L858R limits assumed): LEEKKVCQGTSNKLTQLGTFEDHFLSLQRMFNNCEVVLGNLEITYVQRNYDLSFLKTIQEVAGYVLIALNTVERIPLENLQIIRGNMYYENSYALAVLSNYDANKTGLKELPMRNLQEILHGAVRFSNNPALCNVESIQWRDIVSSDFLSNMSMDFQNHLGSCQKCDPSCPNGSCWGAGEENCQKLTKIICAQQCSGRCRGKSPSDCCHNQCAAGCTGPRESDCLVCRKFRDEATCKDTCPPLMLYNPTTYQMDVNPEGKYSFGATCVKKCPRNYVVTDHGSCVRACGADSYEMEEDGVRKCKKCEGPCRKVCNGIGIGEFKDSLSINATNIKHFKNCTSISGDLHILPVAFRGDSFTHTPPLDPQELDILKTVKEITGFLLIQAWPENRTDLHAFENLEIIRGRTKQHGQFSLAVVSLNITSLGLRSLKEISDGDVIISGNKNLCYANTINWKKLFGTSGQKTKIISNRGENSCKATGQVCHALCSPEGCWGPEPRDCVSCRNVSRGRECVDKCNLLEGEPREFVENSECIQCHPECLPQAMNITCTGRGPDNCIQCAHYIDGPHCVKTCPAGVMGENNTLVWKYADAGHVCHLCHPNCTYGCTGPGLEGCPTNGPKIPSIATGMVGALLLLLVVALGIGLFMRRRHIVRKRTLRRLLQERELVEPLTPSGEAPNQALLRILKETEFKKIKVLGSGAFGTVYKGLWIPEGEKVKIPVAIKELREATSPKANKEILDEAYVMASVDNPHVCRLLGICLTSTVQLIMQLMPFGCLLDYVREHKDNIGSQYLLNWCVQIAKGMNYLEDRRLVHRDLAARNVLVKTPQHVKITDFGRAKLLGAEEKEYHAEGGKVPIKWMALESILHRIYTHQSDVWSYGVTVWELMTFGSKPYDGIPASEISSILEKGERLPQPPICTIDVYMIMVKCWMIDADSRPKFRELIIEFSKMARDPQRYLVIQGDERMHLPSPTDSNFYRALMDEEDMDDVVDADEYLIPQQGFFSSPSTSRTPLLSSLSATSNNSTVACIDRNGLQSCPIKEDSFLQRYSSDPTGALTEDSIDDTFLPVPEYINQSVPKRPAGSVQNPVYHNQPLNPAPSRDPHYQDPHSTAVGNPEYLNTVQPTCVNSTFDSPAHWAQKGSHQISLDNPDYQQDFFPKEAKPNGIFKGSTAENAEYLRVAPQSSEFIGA
Method: as §1

Chain of Epidermal growth factor receptor [L858R] (P00533 25-1210 L858R limits assumed): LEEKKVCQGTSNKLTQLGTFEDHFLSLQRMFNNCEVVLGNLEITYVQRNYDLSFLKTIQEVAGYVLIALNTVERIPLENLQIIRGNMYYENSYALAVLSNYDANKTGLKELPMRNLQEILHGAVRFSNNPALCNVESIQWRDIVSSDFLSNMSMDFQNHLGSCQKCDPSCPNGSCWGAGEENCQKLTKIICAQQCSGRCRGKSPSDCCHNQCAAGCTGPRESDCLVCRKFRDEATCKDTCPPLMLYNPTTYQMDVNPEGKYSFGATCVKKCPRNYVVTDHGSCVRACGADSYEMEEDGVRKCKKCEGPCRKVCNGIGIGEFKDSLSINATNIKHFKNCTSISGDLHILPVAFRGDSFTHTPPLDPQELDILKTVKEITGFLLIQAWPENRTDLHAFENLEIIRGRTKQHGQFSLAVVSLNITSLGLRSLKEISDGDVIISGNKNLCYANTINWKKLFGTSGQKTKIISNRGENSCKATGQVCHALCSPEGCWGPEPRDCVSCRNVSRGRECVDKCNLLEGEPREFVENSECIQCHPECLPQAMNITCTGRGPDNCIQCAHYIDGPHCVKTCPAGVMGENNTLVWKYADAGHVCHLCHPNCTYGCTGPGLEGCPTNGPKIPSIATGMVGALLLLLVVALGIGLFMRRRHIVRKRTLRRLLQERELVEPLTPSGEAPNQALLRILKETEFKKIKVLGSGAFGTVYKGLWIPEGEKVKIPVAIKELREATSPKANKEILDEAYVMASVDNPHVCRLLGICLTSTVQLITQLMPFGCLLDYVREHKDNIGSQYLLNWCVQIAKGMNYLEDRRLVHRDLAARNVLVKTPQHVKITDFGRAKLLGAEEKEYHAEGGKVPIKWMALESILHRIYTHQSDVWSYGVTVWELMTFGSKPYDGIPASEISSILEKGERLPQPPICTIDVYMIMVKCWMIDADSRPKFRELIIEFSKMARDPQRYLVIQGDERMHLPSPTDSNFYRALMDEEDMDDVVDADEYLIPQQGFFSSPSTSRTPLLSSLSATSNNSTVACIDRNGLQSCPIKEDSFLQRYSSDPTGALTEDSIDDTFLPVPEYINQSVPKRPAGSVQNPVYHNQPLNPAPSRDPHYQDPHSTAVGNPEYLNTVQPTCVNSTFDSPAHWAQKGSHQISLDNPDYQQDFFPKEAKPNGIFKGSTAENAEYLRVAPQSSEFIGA

Row | SMILES | IC50 [1] [nM] | IC50 [2] [nM]
1 | O=C(Nc1nccs1)C(c1cccc(F)c1)N1Cc2cnc(Br)cc2C1=O (stereo not given) [US12377080, Compound 1] | > 1000 | 104
2 | O=C(Nc1nccs1)C(c1cccc(F)c1)N1Cc2ncc(Br)cc2C1=O (stereo not given) [US12377080, Compound 2] | 318 | 15
3 | O=C(Nc1ccccn1)C(c1cccc(F)c1)N1Cc2ncc(Br)cc2C1=O (stereo not given) [US12377080, Compound 3] | > 1000 | 40
4 | O=C(Nc1nccs1)C(c1cccc(F)c1)N1Cc2ccc(Br)nc2C1=O (stereo not given) [US12377080, Compound 4] | > 1000 | 14
5 | O=C(Nc1ccccn1)C(c1cccc(F)c1)N1Cc2ccc(Br)nc2C1=O (stereo not given) [US12377080, Compound 5] | > 1000 | 114
